Several values for one entry are separate records, joined by “and”; a condition that tells them apart may be missing. Identical values can stand only once. Inconclusive results and toxic doses are left out. Rule for the calls: active = survival T/C of 150% or more; inactive = T/C below 125% in these data.
Test system: P388 leukemia ip, CD2F1 mice, survival T/C
Experiment: NCI In Vivo Anticancer Drug Screen. Data for tumor model P388 Leukemia (intraperitoneal) in CD2F1 (CDF1) mice
Conditions: endpoint: median survival time, higher = longer survival
How it was run: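 Mice carrying the transplanted tumor received test compound or vehicle. Survival was recorded in each group, and the value is the treated-group measurement divided by that of the vehicle-treated control group.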

[1] = dose: 50.0 mg/kg/injection, schedule: Q01DX009 (ip), vehicle: saline with Tween-80
[2] = dose: 60.0 mg/kg/injection, schedule: Q01DX005 (ip), vehicle: saline with Tween-80
[3] = dose: 120.0 mg/kg/injection, schedule: Q01DX005 (ip), vehicle: saline with Tween-80
[4] = dose: 240.0 mg/kg/injection, schedule: Q01DX005 (ip), vehicle: saline with Tween-80
[5] = dose: 50.0 mg/kg/injection, schedule: Q01DX009 (ip), vehicle: saline

Measured: T/C

Cc1c2ccncc2c(CNC(=O)C(N)Cc2c[nH]c3ccccc23)c2c3ccccc3n(C)c12 (centres undefined)
inactive: dose: 6.25 mg/kg/injection, schedule: Q04DX002 (ip), vehicle: saline with Tween-80 108 % of control | dose: 12.5 mg/kg/injection, schedule: Q04DX002 (ip), vehicle: saline with Tween-80 112 % of control | dose: 25.0 mg/kg/injection, schedule: Q04DX002 (ip), vehicle: saline with Tween-80 115 % of control | dose: 50.0 mg/kg/injection, schedule: Q04DX002 (ip), vehicle: saline with Tween-80 117 % of control

O=C1CCC(N2C(=O)c3ccccc3C2=O)C(=O)N1 (centres undefined)
inactive: [1] 100 % of control | dose: 100.0 mg/kg/injection, schedule: Q01DX009 (ip), vehicle: saline with Tween-80 92 % of control

C[N+]1=Nc2cccc3cccc(c23)[N-]1
inactive: dose: 50.0 mg/kg/injection, schedule: Q01DX001 (ip), vehicle: Klucel (hydroxypropylcellulose) (HPC) 111 % of control | dose: 100.0 mg/kg/injection, schedule: Q01DX001 (ip), vehicle: Klucel (hydroxypropylcellulose) (HPC) 102 % of control | dose: 200.0 mg/kg/injection, schedule: Q01DX001 (ip), vehicle: Klucel (hydroxypropylcellulose) (HPC) 100 % of control

CC1=NNC(=O)CC1C(O)c1ccccc1 (centres undefined)
inactive: dose: 60.0 mg/kg/injection, schedule: Q01DX005 (ip), vehicle: saline 114 % of control | dose: 120.0 mg/kg/injection, schedule: Q01DX005 (ip), vehicle: saline 101 % of control | dose: 240.0 mg/kg/injection, schedule: Q01DX005 (ip), vehicle: saline 107 % of control

CC(=O)C1(C(C)=O)OC2c3ccccc3C=CN2C=C1C=O (centres undefined)
inactive: [2] 110 % of control | [3] 106 % of control | [4] 106 % of control

CCOC(=O)CC1=CS/C(=C(/C#N)C(=O)OCC)S1
inactive: dose: 50.0 mg/kg/injection, schedule: Q01DX005 (ip), vehicle: saline with Tween-80 93 % of control | dose: 100.0 mg/kg/injection, schedule: Q01DX005 (ip), vehicle: saline with Tween-80 98 % of control | dose: 200.0 mg/kg/injection, schedule: Q01DX005 (ip), vehicle: saline with Tween-80 94 % of control

O=C(c1ccccc1)c1cccc[n+]1Cc1ccccc1
inactive: dose: 12.5 mg/kg/injection, schedule: Q01DX009 (ip), vehicle: saline 103 % of control | dose: 25.0 mg/kg/injection, schedule: Q01DX009 (ip), vehicle: saline 96 % of control | [5] 98 % of control and 100 % of control

CC[C@@]1(O)CC(OC2CC(N3CCOCC3)C(O)C(C)O2)c2c(O)c3c(c(O)c2[C@H]1O)C(=O)c1cccc(O)c1C3=O (some centres undefined)
inactive: dose: 4.5 mg/kg/injection, schedule: Q04DX003 (iv), vehicle: saline 113 % of control
active: dose: 0.89 mg/kg/injection, schedule: Q04DX003 (iv), vehicle: saline 163 % of control | dose: 1.33 mg/kg/injection, schedule: Q04DX003 (iv), vehicle: saline 186 % of control | dose: 2.0 mg/kg/injection, schedule: Q04DX003 (iv), vehicle: saline 209 % of control | dose: 3.0 mg/kg/injection, schedule: Q04DX003 (iv), vehicle: saline 242 % of control

N#CCCN(CCC#N)c1ccc(/C=C2\C(=O)N(c3ccc(S(=O)(=O)O)cc3)N=C2C(=O)O)cc1
inactive: [2] 102 % of control | [3] 94 % of control | [4] 105 % of control

CCN1c2ccccc2CC(CCN(C)Cc2ccccc2)(C(N)=O)c2ccccc21 (centres undefined)
inactive: dose: 12.5 mg/kg/injection, schedule: Q01DX009 (ip), vehicle: saline with Tween-80 92 % of control | dose: 25.0 mg/kg/injection, schedule: Q01DX009 (ip), vehicle: saline with Tween-80 99 % of control | [1] 100 % of control

c1ccc(-c2csc3nc(N4CCCCC4)cn23)cc1
inactive: dose: 100.0 mg/kg/injection, schedule: Q04DX003 (ip), vehicle: saline + Tween-80 + alcohol 107 % of control | dose: 200.0 mg/kg/injection, schedule: Q04DX003 (ip), vehicle: saline + Tween-80 + alcohol 107 % of control

CN(C)/C=N/c1c(C#N)c(-c2ccccc2)c(-c2ccccc2)n1-c1ccccc1
inactive: [1] 97 % of control | [5] 98 % of control | dose: 100.0 mg/kg/injection, schedule: Q01DX009 (ip), vehicle: saline 93 % of control | dose: 200.0 mg/kg/injection, schedule: Q01DX009 (ip), vehicle: saline with Tween-80 96 % of control | dose: 200.0 mg/kg/injection, schedule: Q01DX009 (ip), vehicle: saline 87 % of control

From PubChem BioAssay AID330 (DTP/NCI, 2004)
